The text below walks through data of ChEMBL document CHEMBL3046537, “Tautomeric origin of dual effects of N1-nicotinoyl-3-(4-hydroxy-3-methyl phenyl)-5-[(sub)phenyl]-2-pyrazolines on bacterial and viral strains: POM analyses as new efficient bioinformatics platform to predict and optimize bioactivity of drugs” (Med Chem Res, 2013).

One test deals with Pichia kudriavzevii. Put plainly: Antifungal activity against Pichia kudriavzevii G03. Type of test: functional.
The next test relates to Nakaseomyces glabratus. The test can be described thus: Antifungal activity against Candida glabrata H05. The test is classed as functional.
Test [1] deals with Candida albicans. Put plainly: Antifungal activity against Candida albicans ATCC 10231. The test is classed as functional.
For test [2], the system named is Candida albicans. Put plainly: Antifungal activity against Candida albicans. The test is classed as functional.
The next test relates to Aspergillus fumigatus. Put plainly: Antifungal activity against Aspergillus fumigatus. Type of test: functional.
For another test, the system named is Escherichia coli. The test can be described thus: Antibacterial activity against Escherichia coli 2231. The test is classed as functional.
The next test has as its system Staphylococcus aureus. Put plainly: Antibacterial activity against Staphylococcus aureus 209P. The test is classed as functional.
Test [3] relates to Human immunodeficiency virus. Put plainly: Antiviral activity against Human immunodeficiency virus. The test is classed as functional, organism-based. To be noted: Human immunodeficiency virus 1.
Test [4] deals with Human immunodeficiency virus. The test can be described thus: Antiviral activity against Human immunodeficiency virus assessed as protection against virus-induced cytopathogenicity. The test is classed as functional. Also on record: concentration or dose not given beside the values. For orientation: Cytopathic effects are the visible damage that an infection or toxin causes in cultured cells.

As for `OC(Cn1cncn1)(Cn1cncn1)c1ccc(F)cc1F` [FLUCONAZOLE], the “inhibition zone (IZ)” value is listed as greater than 15 mm in the test with Pichia kudriavzevii; greater than 15 mm in the test on Nakaseomyces glabratus; greater than 15 mm in the test with Candida albicans [1]; greater than 15 mm in the test with Candida albicans [2]; greater than 15 mm with Aspergillus fumigatus; less than 5 mm in the test with Escherichia coli. In addition, in the test on Staphylococcus aureus, the “inhibition zone (IZ)” value is less than 5 mm.
By IC50 is commonly meant the concentration at which inhibition is half-maximal. `COc1ccc(C2C=C(c3ccc(O)c(C)c3)NN2C(=O)c2ccncc2)cc1OC` (stereo not given) registered a half-inhibitory concentration (IC50) in test [3] greater than 14 µM. In addition, the Activity in test [4] came to 24%. The “inhibition zone (IZ)” value is given as less than 5 mm in the test on Pichia kudriavzevii; less than 5 mm with Nakaseomyces glabratus; less than 5 mm in the test with Candida albicans [1]; 5 mm with Candida albicans [2]; 10 mm in the test on Aspergillus fumigatus; 10 mm with Escherichia coli. Besides, the “inhibition zone (IZ)” value with Staphylococcus aureus was found to be 10 mm.
Regarding `Cc1cc(C2=CC(c3ccccc3Cl)N(C(=O)c3ccncc3)N2)ccc1O` (stereo not given), the IC50 in test [3] was greater than 53 µM. For the same compound, the Activity in test [4] was 24%. In addition, the “inhibition zone (IZ)” value in the test on Pichia kudriavzevii is given as less than 5 mm; in the test with Nakaseomyces glabratus, less than 5 mm; with Candida albicans [1], less than 5 mm; with Candida albicans [2] it was less than 5 mm; in the test with Aspergillus fumigatus, greater than 15 mm; with Escherichia coli, greater than 15 mm. The “inhibition zone (IZ)” value in the test on Staphylococcus aureus was greater than 15 mm.
Turning to `COc1cc(C2C=C(c3ccc(O)c(C)c3)NN2C(=O)c2ccncc2)cc(OC)c1OC` (stereo not given), the IC50 in [3] was greater than 66 µM. For the same compound, the Activity in test [4] was determined as 26%. In addition, the “inhibition zone (IZ)” value is recorded as less than 5 mm in the test on Pichia kudriavzevii; less than 5 mm with Nakaseomyces glabratus; less than 5 mm in the test with Candida albicans [1]; 5 mm with Candida albicans [2]; 5 mm in the test with Aspergillus fumigatus; 5 mm with Escherichia coli. Besides, in the test on Staphylococcus aureus, the “inhibition zone (IZ)” value is given as 5 mm.
Consider `Cc1cc(C2=CC(c3c(Cl)cccc3Cl)N(C(=O)c3ccncc3)N2)ccc1O` (stereo not given), for which the 50% inhibitory concentration (IC50) in test [3] was greater than 14 µM. The Activity in test [4] is 24%. Also, the “inhibition zone (IZ)” value with Pichia kudriavzevii was 5 mm; in the test with Nakaseomyces glabratus, 10 mm; in the test with Candida albicans [1] it was greater than 15 mm; in the test with Candida albicans [2], greater than 15 mm; in the test with Aspergillus fumigatus, greater than 15 mm; in the test with Escherichia coli it was greater than 15 mm. The “inhibition zone (IZ)” value in the test on Staphylococcus aureus was greater than 15 mm.
In turn, `Cc1cc(C2=CC(c3ccc(Cl)cc3)N(C(=O)c3ccncc3)N2)ccc1O` (stereo not given) came in with an IC50 in [3] greater than 36 µM. In addition, in test [4], the Activity is reported as 42%. Also, the “inhibition zone (IZ)” value in the test with Pichia kudriavzevii is recorded as less than 5 mm; in the test on Nakaseomyces glabratus, less than 5 mm; in the test with Candida albicans [1], less than 5 mm; in the test with Candida albicans [2], greater than 15 mm; in the test on Aspergillus fumigatus, greater than 15 mm; in the test with Escherichia coli it was greater than 15 mm. For the same compound, in the test on Staphylococcus aureus, the “inhibition zone (IZ)” value is given as greater than 15 mm.
Regarding `Cc1cc(C2=CC(c3cccc([N+](=O)[O-])c3)N(C(=O)c3ccncc3)N2)ccc1O` (stereo not given), in test [3], the half-inhibitory concentration (IC50) is greater than 11 µM. Besides, the Activity in [4] was 40%. For the same compound, the “inhibition zone (IZ)” value with Pichia kudriavzevii was less than 5 mm; in the test with Nakaseomyces glabratus, less than 5 mm; in the test with Candida albicans [1], less than 5 mm; in the test on Candida albicans [2], less than 5 mm; with Aspergillus fumigatus, greater than 15 mm; in the test on Escherichia coli it was greater than 15 mm. Further, the “inhibition zone (IZ)” value with Staphylococcus aureus is listed as greater than 15 mm.
Compound `Cc1cc(C2=CC(c3ccccc3)N(C(=O)c3ccncc3)N2)ccc1O` (stereo not given) displayed an IC50 in test [3] greater than 11 µM. Also, the Activity in [4] came to 13%. The “inhibition zone (IZ)” value is listed as less than 5 mm in the test on Pichia kudriavzevii; less than 5 mm in the test with Nakaseomyces glabratus; less than 5 mm in the test with Candida albicans [1]; less than 5 mm in the test on Candida albicans [2]; 5 mm in the test with Aspergillus fumigatus; 5 mm with Escherichia coli. For the same compound, the “inhibition zone (IZ)” value in the test on Staphylococcus aureus came to 5 mm.
As for `Cc1cc(C2=CC(c3ccc(N(C)C)cc3)N(C(=O)c3ccncc3)N2)ccc1O` (stereo not given), the IC50 in test [3] was found to be 6 µM. The Activity in [4] was 102%. Also, the “inhibition zone (IZ)” value in the test with Pichia kudriavzevii is reported as 5 mm; with Nakaseomyces glabratus it was 10 mm; in the test on Candida albicans [1] it was 10 mm; with Candida albicans [2] it was greater than 15 mm; with Aspergillus fumigatus, greater than 15 mm; with Escherichia coli, greater than 15 mm. For the same compound, in the test with Staphylococcus aureus, the “inhibition zone (IZ)” value is reported as greater than 15 mm.
In [3], `Cc1cc(C2=CC(c3ccc(F)cc3)N(C(=O)c3ccncc3)N2)ccc1O` (stereo not given) yielded a concentration for half-maximal inhibition (IC50) greater than 68 µM. Moreover, the Activity in [4] is on record as 8%. Also, the “inhibition zone (IZ)” value is given as less than 5 mm with Pichia kudriavzevii; less than 5 mm in the test on Nakaseomyces glabratus; less than 5 mm with Candida albicans [1]; greater than 15 mm with Candida albicans [2]; greater than 15 mm in the test on Aspergillus fumigatus; greater than 15 mm in the test with Escherichia coli. The “inhibition zone (IZ)” value in the test on Staphylococcus aureus is listed as greater than 15 mm.
Take `CC1COc2c(N3CCN(C)CC3)c(F)cc3c(=O)c(C(=O)O)cn1c23` (stereo not given) [OFLOXACIN]: the “inhibition zone (IZ)” value is less than 5 mm in the test with Pichia kudriavzevii; less than 5 mm in the test with Nakaseomyces glabratus; less than 5 mm with Candida albicans [1]; less than 5 mm in the test with Candida albicans [2]; less than 5 mm in the test with Aspergillus fumigatus; greater than 15 mm in the test with Escherichia coli. The “inhibition zone (IZ)” value in the test on Staphylococcus aureus is greater than 15 mm.
In test [3], `COc1ccc(C2C=C(c3ccc(O)c(C)c3)NN2C(=O)c2ccncc2)cc1` (stereo not given) yielded a concentration for half-maximal inhibition (IC50) greater than 125 µM. Moreover, the Activity in test [4] stood at 24%. Further, the “inhibition zone (IZ)” value is given as less than 5 mm in the test with Pichia kudriavzevii; less than 5 mm in the test on Nakaseomyces glabratus; less than 5 mm with Candida albicans [1]; less than 5 mm with Candida albicans [2]; 5 mm in the test on Aspergillus fumigatus; 10 mm in the test on Escherichia coli. Also, the “inhibition zone (IZ)” value in the test on Staphylococcus aureus is 5 mm.
As for `Cc1cc(C2=CC(c3ccco3)N(C(=O)c3ccncc3)N2)ccc1O` (stereo not given), 7 µM corresponded to half-maximal inhibition in test [3] (IC50). Also, in [4], the Activity turned out to be 86%. The “inhibition zone (IZ)” value in the test with Pichia kudriavzevii was less than 5 mm; in the test on Nakaseomyces glabratus, less than 5 mm; in the test on Candida albicans [1], less than 5 mm; in the test on Candida albicans [2], 5 mm; with Aspergillus fumigatus, greater than 15 mm; with Escherichia coli, greater than 15 mm. The “inhibition zone (IZ)” value with Staphylococcus aureus is greater than 15 mm.
In test [3], `Cc1ccnc2c1NC(=O)c1cccnc1N2C1CC1` [NEVIRAPINE] displayed an IC50 of 0.1 µM. Further, the Activity in [4] came to 98%.
